1 molecule from patent publication US20050130134A1, “Means and methods for monitoring non-nucleoside reverse transcriptase inhibitor antiretroviral therapy and guiding therapeutic decisions in the treatment HIV-AIDS” (ViroLogic, Inc., priority 2000, published 2005) can be followed below.

Assay [1] has as its system RTV-1033 patient virus (RT V106A, V189L, F227L). Kind of assay: Phenotypic susceptibility assay, RTV-1033 (patient 98-1033). Type of assay: cell-based, HIV-1. Here is the method:
(§1) Transfections were performed using a calcium-phosphate precipitation procedure. […] Cell lysates were assayed for luciferase activity (FIG. 3). […] The drug inhibition curves are shown in (FIG. 3).

The subject of assay [2] is HIV-1 reverse transcriptase P236L (P236L-RTV). Kind of assay: Phenotypic susceptibility assay, site directed mutant P236L-RTV. Type of assay: cell-based. To be noted: P236L alone versus wild type reference RTV. On the procedure: as §1
(§2) Resistance test vectors were constructed containing the P236L mutation alone and in combination with other known drug resistance mutations (K103N, Y181C) that are known to modulate the susceptibility of HIV-1 to NNRTIs. […] The P236L mutation was also introduced into a RTV containing mutations at K103N, Y181C or both (K103N+Y181C).

The subject of assay [3] is HIV-1 reverse transcriptase P236L plus K103N, Y181C or both. The experiment in a line: Phenotypic susceptibility assay, P236L with K103N, Y181C or K103N+Y181C. Type of assay: cell-based. To be noted: P236L added to K103N, Y181C or K103N+Y181C versus corresponding RTV lacking P236L. Here is the method:
as §1, §2

Assay [4] relates to HIV-1 reverse transcriptase G190A (G190A-RTV). Kind of assay: Phenotypic susceptibility assay, site directed mutant G190A-RTV. Type of assay: cell-based. To be noted: G190A-RTV versus wild type reference RTV. Here is the method:
(§3) Resistance tests were carried out with resistance test vectors using two host cell types. Resistance test vector viral particles were produced by a first host cell (the resistance test vector host cell) that was prepared by transfecting a packaging host cell with the resistance test vector and the packaging expression vector. The resistance test vector viral particles were then used to infect a second host cell (the target host cell) in which the expression of the indicator gene is measured.
(§4) The resistance test vectors containing a functional luciferase gene cassette were constructed and host cells were transfected with the resistance test vector DNA. The resistant test vectors contained patient-derived reverse transcriptase and protease sequences that were either susceptible or resistant to the antiretroviral agents, such as nucleoside reverse transcriptase inhibitors, non-nucleoside reverse transcriptase inhibitors and protease inhibitors. The resistance test vector viral particles produced by transfecting the resistance test vector DNA into host cells, either in the presence or absence of protease inhibitors, were used to infect target host cells grown either in the absence of NRTI or NNRTI or in the presence of increasing concentrations of the drug. The amount of luciferase activity produced in infected target host cells in the presence of drug was compared to the amount of luciferase produced in infected target host cells in the absence of drug. Drug resistance was measured as the amount of drug required to inhibit by 50% the luciferase activity detected in the absence of drug (inhibitory concentration 50%, IC50). The IC50 values were determined by plotting percent drug inhibition vs. log10 drug concentration.
(§5) Host cells were seeded in 10-cm-diameter dishes and were transfected several days after plating with resistance test vector plasmid DNA and the envelope expression vector. Transfections were performed using a calcium-phosphate precipitation procedure. The cell culture media containing the DNA precipitate was replaced with fresh medium, from one to 24 hours, after transfection. […] HIV capsid protein (p24) levels in the harvested cell culture media were determined by an EIA method as described by the manufacturer (SIAC; Frederick, Md.). […] The inhibitory effect of the drug was determined using the following equation: % luciferase inhibition=1-(RLUluc[drug]÷RLUluc)×100 where RLUluc [drug] is the relative light unit of luciferase activity in infected cells in the presence of drug and RLUluc is the Relative Light Unit of luciferase activity in infected cells in the absence of drug. […]

The subject of assay [5] is HIV-1 reverse transcriptase Y181I (Y181I-RTV). The experiment in a line: Phenotypic susceptibility assay, site directed mutant Y181I-RTV. To be noted: >1 loss of susceptibility. Type of assay: cell-based. On the procedure:
as §3
as §4, with “The amount of luciferase activity produced in infected target host cells in the presence of drug was compared to the amount of luciferase produced in infected target host cells in the absence of drug. Drug resistance was measured as the amount of drug required to inhibit by 50% the luciferase activity detected in the absence of drug (inhibitory concentration 50%, IC50).” left out
as §5, with “vector.” for “vector. Transfections were performed using a calcium-phosphate precipitation procedure. The cell culture media containing the DNA precipitate was replaced with fresh medium, from one to 24 hours, after transfection.”

Assay [6] concerns HIV-1 reverse transcriptase A98G (A98G-RTV). The experiment in a line: Phenotypic susceptibility assay, site directed mutant A98G-RTV. Type of assay: cell-based. The settings on record: >1 loss of susceptibility. Here is the method: as §3
as §4, with “The amount of luciferase activity produced in infected target host cells in the presence of drug was compared to the amount of luciferase produced in infected target host cells in the absence of drug. Drug resistance was measured as the amount of drug required to inhibit by 50% the luciferase activity detected in the absence of drug (inhibitory concentration 50%, IC50).” left out
as §5, with “vector.” for “vector. Transfections were performed using a calcium-phosphate precipitation procedure. The cell culture media containing the DNA precipitate was replaced with fresh medium, from one to 24 hours, after transfection.”

The subject of assay [7] is HIV-1 reverse transcriptase A98G + G190S (A98G-G190S-RTV). Kind of assay: Phenotypic susceptibility assay, site directed mutant A98G-G190S-RTV. Type of assay: cell-based. To be noted: >1 loss, <1 increased susceptibility. Here is the method:
as §3
as §4, with “The amount of luciferase activity produced in infected target host cells in the presence of drug was compared to the amount of luciferase produced in infected target host cells in the absence of drug. Drug resistance was measured as the amount of drug required to inhibit by 50% the luciferase activity detected in the absence of drug (inhibitory concentration 50%, IC50).” left out
as §5, with “vector.” for “vector. Transfections were performed using a calcium-phosphate precipitation procedure. The cell culture media containing the DNA precipitate was replaced with fresh medium, from one to 24 hours, after transfection.”

Assay [8] concerns HIV-1 reverse transcriptase Y181C (Y181C-RTV). Kind of assay: Phenotypic susceptibility assay, site directed mutant Y181C-RTV. Type of assay: cell-based. To be noted: Y181C site directed mutant, FIG. 5. On the procedure:
as §3
as §4, with “The amount of luciferase activity produced in infected target host cells in the presence of drug was compared to the amount of luciferase produced in infected target host cells in the absence of drug. Drug resistance was measured as the amount of drug required to inhibit by 50% the luciferase activity detected in the absence of drug (inhibitory concentration 50%, IC50).” left out
as §5, with “vector.” for “vector. Transfections were performed using a calcium-phosphate precipitation procedure. The cell culture media containing the DNA precipitate was replaced with fresh medium, from one to 24 hours, after transfection.”

Entries after “also recorded” stand apart in the source; their conditions may differ.

In turn, `CC(C)Nc1cccnc1N1CCN(C(=O)c2cc3cc(NS(C)(=O)=O)ccc3[nH]2)CC1` [delavirdine] had a decrease in susceptibility in assay [1] of 30 fold. The “change in susceptibility” value in assay [2] is reported as “less susceptible; also recorded: significant reduction”; in assay [3], “less susceptible (more resistant); also recorded: additional reduction; also recorded: severe resistance”; in assay [4] it was “slightly more susceptible; also recorded: increase; also recorded: slightly increase susceptibility”; in assay [4] (listed as delviridine), “increased susceptibility”. In addition, the “fold change in susceptibility compared to wild type control RTV” value was 20 fold in assay [5], 3 fold in assay [6] and 0.8 fold in assay [7]. Besides, the “resistance profile” value in assay [8] is given as “resistance”.
